Assay results taken from patent US10738028B2, “Spiro three-membered ring, spiro five-membered ring peptide deformylase inhibitor and use thereof in antibacteria and anti-tumor” (priority 2016, dated 2020).

Key:
Format in all cases: cell-based
[1] = system: HCT-116 colorectal cancer cell line; assay: CCK-8 proliferation inhibition; settings: concentration of 30 μM, 72 hours, CCK-8
Outline: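 Growth inhibition is read by CCK-8 (1:10 dilution) after 72 h of compound exposure. HCT-116 cells grow in McCoy's 5A containing 10% newborn bovine serum at 2000 cells/well, with 1‰ DMSO as vehicle control.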

[2] = system: BEL-7402 liver cancer cell line; assay: CCK-8 proliferation inhibition; settings: concentration of 30 μM, 72 hours, 30 µM
Outline: (§1)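 Plating at 2000 cells/well, then incubation overnight at 37° C. Next, a range of compound concentrations for 72 hours (control 1‰ DMSO). Finally, medium decanted and CCK-8 diluted 1:10 added.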

[3] = system: MGC-803 gastric cancer cell line; assay: CCK-8 proliferation inhibition; settings: concentration of 30 μM
Outline: as §1

[4] = system: A549 lung cancer cell line; assay: CCK-8 proliferation inhibition; settings: concentration of 30 μM
Outline: as §1

[5] = system: methicillin-resistant Staphylococcus aureus (MRSA); assay: MIC, two-fold agar dilution (CLSI), clinical isolates
Outline: (§2)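 CLSI two-fold agar dilution; MIC of test samples read per tested strain.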

[6] = system: methicillin-sensitive Staphylococcus epidermidis (MSSE); assay: as above
Outline: as §2

[7] = system: Escherichia coli (including ESBLs, non-ESBLs); assay: as above
Outline: as §2

[8] = system: Enterococcus faecalis (EFA); assay: as above
Outline: as §2

[9] = system: Streptococcus pneoumoniae (SPN); assay: as above
Outline: as §2

[10] = system: Enterococcus faecium (EFM); assay: as above
Outline: as §2

[11] = system: Moraxella catarrhalis (BCA); assay: as above
Outline: as §2

[12] = system: methicillin-resistant Staphylococcus epidermidis (MRSE); assay: as above
Outline: as §2

[13] = system: methicillin-sensitive Staphylococcus aureus (MSSA); assay: as above
Outline: as §2

In the case of O=C(C[C@@H](CC1CCCC1)C(=O)N1CC2(CC2)C[C@H]1C(=O)Nc1ccncn1)NO [Example 63], the inhibition at 30 µM ([1]; Homo sapiens, HCT-116, 72 h, read-out: HCT116 inhibition rate/%) is reported as greater than 50%, the HCT116 inhibition rate/% ([1]; 30 µM) is reported as 68% and the “Inhibition of proliferation, Liver cancer BEL-7402” value [2] is reported as 74%. For the same compound, the inhibition at 30 µM ([3]; Homo sapiens, MGC-803, 72 h) was greater than 50%, the “Inhibition of proliferation, Gastric cancer MGC-803” value ([3]; 72 hours, 30 µM) was 58% and the inhibition at 30 µM ([4]; Homo sapiens, A549, 72 h) was greater than 50%. The “Inhibition of proliferation, Lung cancer A549” value ([4]; 72 hours, 30 µM) was 63%, the Anti-bacterial activity (MIC), strain MRSA 15-1 ([5]; clinical isolate MRSA 15-1) was 0.125 µg/mL and the Anti-bacterial activity (MIC), strain MRSA 15-2 ([5]; clinical isolate MRSA 15-2) was 0.25 µg/mL. It also gave an Anti-bacterial activity (MIC), strain MRSA 15-3 ([5]; clinical isolate MRSA 15-3) of 0.125 µg/mL, an Anti-bacterial activity (MIC), strain MRSA 15-4 ([5]; clinical isolate MRSA 15-4) of 0.25 µg/mL and an Anti-bacterial activity (MIC), strain MSSE 15-3 ([6]; clinical isolate MSSE 15-3) of 0.125 µg/mL. It also gave an Anti-bacterial activity (MIC), strain MSSE 15-4 ([6]; clinical isolate MSSE 15-4) of 0.25 µg/mL, an Anti-bacterial activity (MIC), strain MSSE 15-5 ([6]; clinical isolate MSSE 15-5) of 0.25 µg/mL and an Anti-bacterial activity (MIC), strain MSSE 15-6 ([6]; clinical isolate MSSE 15-6) of 0.125 µg/mL. The Anti-bacterial activity (MIC), strain ECO+ 15-1 ([7]; clinical isolate ECO+ 15-1) was 16 µg/mL, the Anti-bacterial activity (MIC), strain ECO+ 15-2 ([7]; clinical isolate ECO+ 15-2) was 32 µg/mL and the Anti-bacterial activity (MIC), strain ECO+ 15-3 ([7]; clinical isolate ECO+ 15-3) was 16 µg/mL. It also gave an Anti-bacterial activity (MIC), strain ECO+ 15-4 ([7]; clinical isolate ECO+ 15-4) of 16 µg/mL, an Anti-bacterial activity (MIC), strain ECO− 15-1 ([7]; clinical isolate ECO− 15-1) of 16 µg/mL and an Anti-bacterial activity (MIC), strain ECO− 15-2 ([7]; clinical isolate ECO− 15-2) of 16 µg/mL. It also gave an Anti-bacterial activity (MIC), strain ECO− 15-3 ([7]; clinical isolate ECO− 15-3) of 32 µg/mL, an Anti-bacterial activity (MIC), strain ECO− 15-4 ([7]; clinical isolate ECO− 15-4) of 16 µg/mL and an Anti-bacterial activity (MIC), strain EFA 15-1 ([8]; clinical isolate EFA 15-1) greater than 32 µg/mL. It also gave an Anti-bacterial activity (MIC), strain EFA 15-2 ([8]; clinical isolate EFA 15-2) greater than 32 µg/mL, an Anti-bacterial activity (MIC), strain EFA 15-3 ([8]; clinical isolate EFA 15-3) greater than 32 µg/mL and an Anti-bacterial activity (MIC), strain EFA 15-4 ([8]; clinical isolate EFA 15-4) greater than 32 µg/mL. The Anti-bacterial activity (MIC), strain EFA 15-5 ([8]; clinical isolate EFA 15-5) was greater than 32 µg/mL, the Anti-bacterial activity (MIC), strain EFA 15-6 ([8]; clinical isolate EFA 15-6) was greater than 32 µg/mL and the Anti-bacterial activity (MIC), strain EFA 15-9 ([8]; clinical isolate EFA 15-9) was 4 µg/mL. It also gave an Anti-bacterial activity (MIC), strain SPN 16-2 ([9]; clinical isolate SPN 16-2) of 0.5 µg/mL, an Anti-bacterial activity (MIC), strain SPN 16-4 ([9]; clinical isolate SPN 16-4) of 0.5 µg/mL and an Anti-bacterial activity (MIC), strain EFM 15-1 ([10]; clinical isolate EFM 15-1) greater than 32 µg/mL. It also gave an Anti-bacterial activity (MIC), strain EFM 15-2 ([10]; clinical isolate EFM 15-2) greater than 32 µg/mL, an Anti-bacterial activity (MIC), strain EFM 15-3 ([10]; clinical isolate EFM 15-3) greater than 32 µg/mL and an Anti-bacterial activity (MIC), strain EFM 15-4 ([10]; clinical isolate EFM 15-4) of 0.5 µg/mL. For the same compound, the Anti-bacterial activity (MIC), strain EFM 15-5 ([10]; clinical isolate EFM 15-5) was 0.25 µg/mL, the Anti-bacterial activity (MIC), strain EFM 15-6 ([10]; clinical isolate EFM 15-6) was 0.25 µg/mL and the Anti-bacterial activity (MIC), strain BCA 14-1 ([11]; clinical isolate BCA 14-1) was 2 µg/mL. For the same compound, the Anti-bacterial activity (MIC), strain BCA 14-4 ([11]; clinical isolate BCA 14-4) was 2 µg/mL, the Anti-bacterial activity (MIC), strain BCA 14-5 ([11]; clinical isolate BCA 14-5) was 0.25 µg/mL and the Anti-bacterial activity (MIC), strain BCA 14-6 ([11]; clinical isolate BCA 14-6) was 0.25 µg/mL. It also gave an Anti-bacterial activity (MIC), strain BCA 14-7 ([11]; clinical isolate BCA 14-7) of 4 µg/mL, an Anti-bacterial activity (MIC), strain BCA 14-8 ([11]; clinical isolate BCA 14-8) of 0.5 µg/mL and an Anti-bacterial activity (MIC), strain BCA 14-10 ([11]; clinical isolate BCA 14-10) of 0.5 µg/mL. The Anti-bacterial activity (MIC), strain MRSE 15-1 ([12]; clinical isolate MRSE 15-1) was 0.25 µg/mL, the Anti-bacterial activity (MIC), strain MRSE 15-2 ([12]; clinical isolate MRSE 15-2) was 0.25 µg/mL and the Anti-bacterial activity (MIC), strain MRSE 15-3 ([12]; clinical isolate MRSE 15-3) was 0.25 µg/mL. The Anti-bacterial activity (MIC), strain MRSE 15-7 ([12]; clinical isolate MRSE 15-7) was 0.25 µg/mL, the Anti-bacterial activity (MIC), strain MSSA 15-3 ([13]; clinical isolate MSSA 15-3) was 0.25 µg/mL and the Anti-bacterial activity (MIC), strain MSSA 15-4 ([13]; clinical isolate MSSA 15-4) was 0.125 µg/mL. The Anti-bacterial activity (MIC), strain MSSA 15-5 ([13]; clinical isolate MSSA 15-5) was 0.125 µg/mL and the Anti-bacterial activity (MIC), strain MSSA 15-6 ([13]; clinical isolate MSSA 15-6) was 16 µg/mL.
